How the values were obtained:
human CB2 receptors = target: T1, human CB2 receptors (Homo sapiens, UniProt P34972); test: cAMP assay in HEK-293 cells, hCB2 agonist; type: cell-based; settings: inhibition of forskolin-stimulated cAMP, HEK-293 cells; read-out: hCB2 EC50 (cAMP ag)
T1 construct: (cDNA clone) CNR0200000
Procedure, shortened: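 Stable hCB2 HEK-293 cells in HBSS/10 mM HEPES/0.1% fatty-acid-free BSA incubated 30 min at 37° C with compound; forskolin 90 uM in 3× compound mix.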

human CB1 receptors = target: T2, human CB1 receptors (Homo sapiens, UniProt P21554); test: cAMP assay in HEK-293 cells, hCB1 agonist; type: cell-based; settings: inhibition of forskolin-stimulated cAMP, HEK-293 cells; for EC50: read-out: hCB1 EC50 (cAMP ag)
T2 construct: (cDNA clone) CNR01L000
T2 sequence (P21554 whole entry): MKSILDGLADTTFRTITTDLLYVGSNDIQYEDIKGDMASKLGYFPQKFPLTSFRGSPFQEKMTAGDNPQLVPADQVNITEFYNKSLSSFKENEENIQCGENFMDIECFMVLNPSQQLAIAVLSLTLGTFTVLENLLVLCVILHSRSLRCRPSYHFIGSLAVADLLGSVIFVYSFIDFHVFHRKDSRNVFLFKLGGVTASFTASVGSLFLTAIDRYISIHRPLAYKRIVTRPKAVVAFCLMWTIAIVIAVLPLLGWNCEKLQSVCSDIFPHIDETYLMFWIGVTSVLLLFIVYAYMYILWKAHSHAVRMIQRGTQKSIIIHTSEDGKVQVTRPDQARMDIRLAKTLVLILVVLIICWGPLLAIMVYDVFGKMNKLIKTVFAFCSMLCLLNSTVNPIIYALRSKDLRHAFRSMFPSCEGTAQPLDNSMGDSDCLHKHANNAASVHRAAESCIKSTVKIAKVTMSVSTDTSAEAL
Procedure, shortened: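 Agonist EC50 taken as concentration giving half inhibition of forskolin-driven cAMP, normalized to forskolin maximum, from sigmoidal curves. Whole HEK-293 cells stably expressing hCB1, in HEPES/BSA-containing HBSS, exposed 30 min at 37° C. to compound with forskolin (90 uM in 3× dilution); cAMP read after lysis.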

T1 sequence (P34972 whole entry): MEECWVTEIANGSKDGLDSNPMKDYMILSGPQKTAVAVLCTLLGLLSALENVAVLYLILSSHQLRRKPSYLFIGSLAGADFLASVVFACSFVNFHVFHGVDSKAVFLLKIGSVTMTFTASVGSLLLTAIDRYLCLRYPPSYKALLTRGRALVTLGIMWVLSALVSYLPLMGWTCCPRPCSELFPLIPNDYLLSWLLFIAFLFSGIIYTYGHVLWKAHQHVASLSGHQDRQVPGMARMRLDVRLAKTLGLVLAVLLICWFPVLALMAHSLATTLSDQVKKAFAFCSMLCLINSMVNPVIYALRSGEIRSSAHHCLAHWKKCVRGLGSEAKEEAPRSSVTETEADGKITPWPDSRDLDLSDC

Row | Structure (SMILES) | EC50 (human CB2 receptors) [µM] | hCB1 EC50 (cAMP ag, nM) (human CB1 receptors) | EC50 (human CB1 receptors) [µM]
1 | Cc1cc2cc(C(=O)c3cccc(Cl)c3)sc2n1CCN1CCOCC1 [Compound 4, (3-Chlorophenyl)(5-methyl-6-(2-morpholinoethyl)-6H-thieno[2,3-b]pyrrol-2-yl)methanone] | < 0.1 | NS (NS means “Not Significant,” which means less than 30% agonist activity when compared to the positive control.) | 
2 | Cc1cc2cc(C(=O)c3ccccc3)sc2n1CCN1CCOCC1 [Compound 7, (5-Methyl-6-(2-morpholinoethyl)-6H-thieno[2,3-b]pyrrol-2-yl)(phenyl)methanone] | < 0.1 |  | 1 to 10
3 | Cc1cc2cc(C(=O)c3ccc(Cl)cc3Cl)sc2n1CCN1CCOCC1 [Compound 10, (2,4-Dichlorophenyl)(5-methyl-6-(2-morpholinoethyl)-6H-thieno[2,3-b]pyrrol-2-yl)methanone] | < 0.1 |  | 0.1 to 1
4 | Cc1ccccc1C(=O)c1cc2cc(C)n(CCN3CCOCC3)c2s1 [Compound 12, (5-Methyl-6-(2-morpholinoethyl)-6H-thieno[2,3-b]pyrrol-2-yl)(o-tolyl)methanone] | < 0.1 |  | 0.1 to 1
5 | CCn1c(C)cc2cc(C(=O)c3cccc(Cl)c3Cl)sc21 [Compound 19, (2,3-Dichlorophenyl)(6-ethyl-5-methyl-6H-thieno[2,3-b]pyrrol-2-yl)methanone] | < 0.1 | NS (NS means “Not Significant,” which means less than 30% agonist activity when compared to the positive control.) | 
6 | CCS(=O)(=O)n1c(C)cc2cc(C(=O)c3cccc(Cl)c3Cl)sc21 [Compound 25, (2,3-Dichlorophenyl)(6-(ethylsulfonyl)-5-methyl-6H-thieno[2,3-b]pyrrol-2-yl)methanone] | < 0.1 | NS (NS means “Not Significant,” which means less than 30% agonist activity when compared to the positive control.) | 
7 | COc1cccc(C(=O)c2cc3cc(C)n(CCN4CCOCC4)c3s2)c1 [Compound 26, (3-Methoxyphenyl)(5-methyl-6-(2-morpholinoethyl)-6H-thieno[2,3-b]pyrrol-2-yl)methanone] | < 0.1 |  | 0.1 to 1
8 | Cc1cc2cc(C(=O)c3cccc(Cl)c3Cl)sc2n1CC1CCOCC1 [Compound 31, (2,3-Dichlorophenyl)(5-methyl-6-((tetrahydro-2H-pyran-4-yl)methyl)-6H-thieno[2,3-b]pyrrol-2-yl)methanone] | < 0.1 | NS (NS means “Not Significant,” which means less than 30% agonist activity when compared to the positive control.) | 
9 | Cc1cc2cc(Cc3cccc(Cl)c3Cl)sc2n1CCN1CCOCC1 [Compound 32, 4-(2-(2-(2,3-Dichlorobenzyl)-5-methyl-6H-thieno[2,3-b]pyrrol-6-yl)ethyl)morpholine] | < 0.1 |  | 1 to 10
10 | Cc1cc2cc(C(=O)c3cccc(Cl)c3Cl)sc2n1CCCNS(C)(=O)=O [Compound 37, N-(3-(2-(2,3-Dichlorobenzoyl)-5-methyl-6H-thieno[2,3-b]pyrrol-6-yl)propyl)methanesulfonamide] | < 0.1 | NS (NS means “Not Significant,” which means less than 30% agonist activity when compared to the positive control.) | 
11 | Cc1cc2cc(C(=O)c3cccc(Cl)c3Cl)sc2n1S(=O)(=O)C(C)C [Compound 38, (2,3-Dichlorophenyl)(6-(isopropylsulfonyl)-5-methyl-6H-thieno[2,3-b]pyrrol-2-yl)methanone] | < 0.1 | NS (NS means “Not Significant,” which means less than 30% agonist activity when compared to the positive control.) | 
12 | CCS(=O)(=O)n1c(C)cc2cc(C(=O)c3ccccc3Cl)sc21 [Compound 42, (2-Chlorophenyl)(6-(ethylsulfonyl)-5-methyl-6H-thieno[2,3-b]pyrrol-2-yl)methanone] | < 0.1 | NS (NS means “Not Significant,” which means less than 30% agonist activity when compared to the positive control.) | 
13 | CCS(=O)(=O)n1c(C)cc2cc(C(=O)c3cccnc3Cl)sc21 [Compound 43, (2-Chloropyridin-3-yl)(6-(ethylsulfonyl)-5-methyl-6H-thieno[2,3-b]pyrrol-2-yl)methanone] | < 0.1 | NS (NS means “Not Significant,” which means less than 30% agonist activity when compared to the positive control.) | 
14 | COc1ccc(C(=O)c2cc3cc(C)n(CCCNS(C)(=O)=O)c3s2)cc1 [Compound 44, N-(3-(2-(4-methoxybenzoyl)-5-methyl-6H-thieno[2,3-b]pyrrol-6-yl)propyl)methanesulfonamide] | < 0.1 | NS (NS means “Not Significant,” which means less than 30% agonist activity when compared to the positive control.) | 
15 | COc1ncccc1C(=O)c1cc2cc(C)n(CCN3CCOCC3)c2s1 [Compound 47, (2-Methoxypyridin-3-yl)(5-methyl-6-(2-morpholinoethyl)-6H-thieno[2,3-b]pyrrol-2-yl)methanone] | < 0.1 | NS (NS means “Not Significant,” which means less than 30% agonist activity when compared to the positive control.) | 
16 | COc1ccc(C(=O)c2cc3cc(C)n(S(=O)(=O)N(C)C)c3s2)cc1 [Compound 51, 2-(4-Methoxybenzoyl)-N,N,5-trimethyl-6H-thieno[2,3-b]pyrrole-6-sulfonamide] | < 0.1 | NS (NS means “Not Significant,” which means less than 30% agonist activity when compared to the positive control.) | 
17 | Cc1cc2cc(C(=O)c3ccc(F)cc3)sc2n1CCN1CCOCC1 [Compound 54, (4-Fluorophenyl)(5-methyl-6-(2-morpholinoethyl)-6H-thieno[2,3-b]pyrrol-2-yl)methanone] | < 0.1 | NS (NS means “Not Significant,” which means less than 30% agonist activity when compared to the positive control.) | 
18 | CCS(=O)(=O)n1c(C)cc2cc(C(=O)c3ccc(OC)cc3)sc21 [Compound 56, (6-(Ethylsulfonyl)-5-methyl-6H-thieno[2,3-b]pyrrol-2-yl)(4-methoxyphenyl)methanone] | < 0.1 | NS (NS means “Not Significant,” which means less than 30% agonist activity when compared to the positive control.) | 
19 | COc1ccc(C(=O)c2cc3cc(C)n(CCN4CCOCC4)c3s2)cn1 [Compound 58, (6-Methoxypyridin-3-yl)(5-methyl-6-(2-morpholinoethyl)-6H-thieno[2,3-b]pyrrol-2-yl)methanone] | < 0.1 | NS (NS means “Not Significant,” which means less than 30% agonist activity when compared to the positive control.) | 
20 | Cc1cc2cc(C(=O)c3ccc(C(F)(F)F)cc3)sc2n1CCN1CCOCC1 [Compound 60, (5-Methyl-6-(2-morpholinoethyl)-6H-thieno[2,3-b]pyrrol-2-yl)(4-(trifluoromethyl)phenyl)methanone] | < 0.1 | NS (NS means “Not Significant,” which means less than 30% agonist activity when compared to the positive control.) | 
21 | COc1ccc(C(=O)c2cc3cc(C)n(CCN4CCOCC4)c3s2)c(Cl)c1 [Compound 70, (2-Chloro-4-methoxyphenyl)(5-methyl-6-(2-morpholinoethyl)-6H-thieno[2,3-b]pyrrol-2-yl)methanone] | < 0.1 |  | 0.1 to 1
22 | COc1ccc(C(=O)c2cc3cc(C)n(Cc4ccccc4)c3s2)cc1 [Compound 84, (6-Benzyl-5-methyl-6H-thieno[2,3-b]pyrrol-2-yl)(4-methoxyphenyl)methanone] | < 0.1 | NS (NS means “Not Significant,” which means less than 30% agonist activity when compared to the positive control.) | 
23 | COc1ccc(C(=O)c2cc3cc(C)n(CCCCl)c3s2)c(Cl)c1 [Compound 85, (2-Chloro-4-methoxyphenyl)(6-(3-chloropropyl)-5-methyl-6H-thieno[2,3-b]pyrrol-2-yl)methanone] | < 0.1 |  | 1 to 10
24 | COc1ccc(C(=O)c2cc3cc(C)n(CCCNS(C)(=O)=O)c3s2)c(F)c1 [Compound 87, N-(3-(2-(2-Fluoro-4-methoxybenzoyl)-5-methyl-6H-thieno[2,3-b]pyrrol-6-yl)propyl)methanesulfonamide] | < 0.1 | NS (NS means “Not Significant,” which means less than 30% agonist activity when compared to the positive control.) | 
25 | COc1ccc(C(=O)c2cc3cc(C)n(CCCNS(C)(=O)=O)c3s2)c(Cl)c1 [Compound 91, N-(3-(2-(2-Chloro-4-methoxybenzoyl)-5-methyl-6H-thieno[2,3-b]pyrrol-6-yl)propyl)methanesulfonamide] | < 0.1 | NS (NS means “Not Significant,” which means less than 30% agonist activity when compared to the positive control.) | 
26 | Cc1ccc(C(=N)c2cc3cc(C)n(CCN4CCOCC4)c3s2)cc1 [Compound 121, (5-methyl-6-(2-morpholinoethyl)-6H-thieno[2,3-b]pyrrol-2-yl)(p-tolyl)methanimine] | < 0.1 | NS (NS means “Not Significant,” which means less than 30% agonist activity when compared to the positive control.) | 
27 | COc1ccc(C(=O)c2cc3cc(C)n(CCN4CCOCC4)c3s2)cc1F [Compound 128, (3-fluoro-4-methoxyphenyl)(5-methyl-6-(2-morpholinoethyl)-6H-thieno[2,3-b]pyrrol-2-yl)methanone] | 0.1 to 1 | NS (NS means “Not Significant,” which means less than 30% agonist activity when compared to the positive control.) | 

— US20130029970A1 (priority 2009, published 2013)
